Our source for the toxic effects observed and safety factor values is patent publication US4515766A, “Labeled phosphonic acid compositions for investigations of in vivo deposits of calcium” (priority 1982, dated 1985).

A short description of one series: Toxic effects in rats. The class given is in vivo. As to conditions: 0.32 mg/300 gm. The source says:
(§1) Relative to a 70 kg person, this represents a safety factor of 74.7 and 112 respectively.

A further series in a line: Toxic effects in mice. As to conditions: 0.032 mg/20 gm. In kind it is in vivo.
From the text: as §1

As to `O=P(O)(O)C(O)(c1ccccc1)P(=O)(O)O` [.PHI.PA], the toxic effects observed result in the series “Toxic effects in rats” and in “Toxic effects in mice” was “No toxic effects” in each case. For the same molecule, the safety factor in the series “Toxic effects in rats” (rat, in vivo, read-out: safety factor relative to a 70 kg person) worked out at 74.7; in the series “Toxic effects in mice” (mouse, in vivo, read-out: safety factor relative to a 70 kg person), 112.
